Test results: patent US10413502B2, “Cosmetic use of a peppermint extract” (LVMH RECHERCHE, priority 2015, dated 2019)

Test system: gap junctions between keratinocytes
Assay: Transfer of the dye lucifer yellow between keratinocytes via gap junctions
Assay type: cell-based
Details: substance alone

## C[C@H](NC(=O)Cc1cc(F)cc(F)c1)C(=O)N[C@H](C(=O)OC(C)(C)C)c1ccccc1 [DAPT, N—[N-(3,5-difluorophenacetyl)-L-alanyl]-S-phenylglycine t-butyl ester]
  diffusion of lucifer yellow between keratinocytes (exchanges via gap junctions): greatly reduced
